Values joined by “and” are separate entries in the source; they are usually repeats but may differ in a detail not shown here. Equal values may be shown once. Active and inactive are the calls of the source.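 How the source made its calls: active means fitted EC50 no more than tenfold above the highest tested concentration; inconclusive means flat fit with 30 to 70% signal loss, or poor fit; inactive means the rest.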

The EC50 is the midpoint of the concentration-response curve.

For the assay, the system named is Candida albicans CaCi-2 growth (no fluconazole), Alamar Blue. Kind of assay: intrinsic antifungal toxicity in Candida, azole-free – CaCi-2 strain, Alamar Blue fluorescence, counter-screen for fluconazole resistance reversal project, dose response (AID 2387). The conditions noted are these: C. albicans CaCi-2 (fluconazole-resistant clinical isolate) growth without fluconazole, 48 h.
In the case of `Oc1ccc(N=Nc2ccc3c(c2)OCCO3)c2cccnc12`, the concentration giving a half-maximal response (EC50) was 3.65 µM.
For `CCCCCCCNC(=O)COc1ccc2c(c1)C(=O)CC(C)(C)O2`, the EC50 is > 16 µM (inactive).
Take `CCc1nnc(NC(=O)CSc2nc(SC)ns2)s1`: the EC50 is > 16 µM (inactive).
Take `Cc1cc(C(C#N)c2ccccc2F)n2ncnc2n1` (configuration not stated): the EC50 was > 16 µM (inactive).
Turning to `O=C(CCS(=O)(=O)c1ccc(Cl)cc1)Nc1nc(-c2ccncc2)cs1`, the EC50 is > 15 µM (inactive).
Take `CCN1/C(=C/C=C/c2oc3ccc(-c4ccccc4)cc3[n+]2CC)Oc2ccc(-c3ccccc3)cc21`: the EC50 is 6.54 µM.
Consider `CCN(CC)c1ccc(/C=N/NC(=O)c2cccc(S(=O)(=O)N3CCOCC3)c2)c(O)c1`, for which the EC50 is > 16 µM (inactive).
Next, `C[C@@H]1CC[C@@]2(NC1)O[C@H]1C[C@H]3[C@@H]4CC=C5C[C@@H](O)CC[C@]5(C)[C@H]4CC[C@]3(C)[C@H]1[C@@H]2C`: > 16 µM (inactive); `c1ccc2c(c1)CCN(c1ncnc3c1[nH]c1ccccc13)C2`: > 15 µM (inactive); `Oc1c(Br)cc(Br)cc1/C=N/Nc1ccc(Cl)nn1`: > 16 µM (inactive).
Turning to `O=C1CS/C(=N\C(=O)N2c3ccccc3Sc3ccccc32)N1`, the EC50 was > 15 µM (inactive).
Regarding `O=C1NC(=O)/C(=C\c2ccc(Br)o2)S1`, the EC50 is > 15 µM (inactive).
For the compound `CCCCc1c(O)nc(SCC(=O)Nc2cccc3ccccc23)n(-c2ccccc2OC)c1=O`, the EC50 was > 16 µM (inactive).
Take `CC[n+]1c(/C=C2\Sc3ccccc3N2C)ccc2cccc(C)c21`: the EC50 is 2.43 µM.
Next, `CN1CCN(C(c2ccc(C(F)(F)F)cc2)c2ccc3cccnc3c2O)CC1` (configuration not stated): 8.31 µM; `O=C(Nc1nnc(SCc2ccc(Cl)cc2)s1)c1cnccn1`: > 16 µM (inactive).
As to `O=C(CNc1ccc2ccccc2c1)N/N=C/c1ccc([N+](=O)[O-])o1`, the EC50 was > 16 µM (inactive).
Next, `COc1ccc2c(c1)/C(=C/c1cnc[nH]1)C(=O)N2`: > 16 µM (inactive); `O=C(c1ccc(Cn2c(=S)[nH]c3ccccc3c2=O)cc1)N1CCN(c2ccccn2)CC1`: > 15 µM (inactive); `NC(=NCCCCCCN=C(N)/N=C(\N)Nc1ccc(Cl)cc1)/N=C(\N)Nc1ccc(Cl)cc1`: > 16 µM (inactive) and > 15 µM (inactive).
Regarding `CCNC(=S)NNC(=O)c1cc(-c2cc(C)ccc2C)nc2ccccc12`, the EC50 is > 15 µM (inactive).
`O=C(NNC1=C(C(=O)C(F)(F)F)CCC1)c1cccc(Cl)c1`: the EC50 is > 16 µM (inactive).
Next, `CC(CC(=O)Nc1ncc([N+](=O)[O-])s1)c1ccccc1` (configuration not stated): > 16 µM (inactive); `C[C@@H]1C[C@@H]2O[C@H]2/C=C\C=C\C(=O)Cc2c(Cl)c(O)cc(O)c2C(=O)O1`: > 16 µM (inactive).
On to `CC(C)CCN1C(=O)c2ccc(C(=O)Nc3ccc(Br)cc3C(=O)O)cc2C1=O`, for which the EC50 was > 16 µM (inactive).
Consider `COc1ccc(-c2nnc(NC(=O)c3cc(Cl)ccc3Cl)o2)cc1`, for which the EC50 is > 15 µM (inactive).
With `Nc1nonc1-n1nnc(C(=O)N/N=C/c2cc(Br)ccc2O)c1CNc1ccccc1` the figure was > 16 µM (inactive); with `Cc1ccc(C)c(S(=O)(=O)N2CCN(Cc3ccc(O)c4ncccc34)CC2)c1`, > 16 µM (inactive).
Turning to `CC(=O)c1sc(NC(=O)CCS(=O)(=O)c2ccccc2)nc1C`, the EC50 is > 15 µM (inactive).
Next, `O=[N+]([O-])c1ccc(O)c(P(=O)(c2ccccc2)c2ccccc2)c1`: > 15 µM (inactive).
Regarding `CN(C)S(=O)(=O)Oc1cccc(C(=O)Nc2cccc(Cl)c2)c1`, the EC50 was > 15 µM (inactive).
For the compound `O=C(Nc1nnc(-c2ccc(F)cc2)o1)c1cccc([N+](=O)[O-])c1`, the EC50 was > 15 µM (inactive).
Take `CC(Nc1ncnc2ccccc12)c1ccccc1` (configuration not stated): the EC50 was > 16 µM (inactive).
Next, `CCc1cc(C(=O)NC2CCCc3c2cnn3-c2cccc(C)c2C)n(C)n1` (configuration not stated): > 15 µM (inactive); `COc1cccc(/C=N/NC(=O)c2c(C)nc3ccc(Br)cn23)c1O`: > 16 µM (inactive); `CC(C)n1cc(/C=C/c2cc[n+](C)cc2)c2ccccc21`: > 15 µM (inactive).
Take `COc1cccc(C2CC(c3ccc(NS(C)(=O)=O)cc3)=NN2C(=O)c2ccccc2)c1OC` (configuration not stated): the EC50 was > 15 µM (inactive).
On to `CCCCC(=O)NC(c1ccc(N(CC)CC)cc1)c1ccc2cccnc2c1O` (configuration not stated), for which the EC50 is 8.6 µM.
With `O=C(NC(Nc1nc2ccc([N+](=O)[O-])cc2s1)(C(F)(F)F)C(F)(F)F)c1ccccc1Cl` the figure was > 16 µM (inactive).
Next, `COc1ccc(C(=O)N2c3ccccc3C=CC2C#N)cc1` (configuration not stated): > 15 µM (inactive); `O=Nc1c(-c2cccc([N+](=O)[O-])c2)nc2ncccn12`: 5.3 µM; `CCNc1nc(N)nc(-c2cc(Cl)ccc2O)n1`: > 15 µM (inactive).
On to `CC1CCN(Cc2c(C(=O)N/N=C/c3cc(Br)ccc3O)nnn2-c2nonc2N)CC1`, for which the EC50 is > 16 µM (inactive).
Take `CCCOc1ccc(C(=O)NNC(=S)NC(C)=O)cc1`: the EC50 is > 16 µM (inactive).
On to `COc1ccccc1OCC(=O)N/N=C/C=C/c1ccc([N+](=O)[O-])o1`, for which the EC50 was > 16 µM (inactive).
As for `N#Cc1cc(C#N)c(N2CCN(c3cccc(Cl)n3)CC2)nc1N`, the EC50 is > 15 µM (inactive).
Next, `Cc1oc2c(F)c(F)c(F)c(F)c2c1S(=O)(=O)Nc1cccc(C(F)(F)F)c1`: > 16 µM (inactive); `Cc1ccc(NC(=O)c2sc3nc(N)c(C#N)cc3c2N)cc1`: > 15 µM (inactive).
On to `O=C(c1cc2ccccc2cc1O)N1CCN(c2ccccc2O)CC1`, for which the EC50 is > 15 µM (inactive).
For `O=C1/C(=C/c2cccnc2)CCc2c1[nH]c1ccccc21`, the EC50 was > 15 µM (inactive).
With `CC1CCN(Cc2c(C(=O)N/N=C/c3cc(Cl)ccc3O)nnn2-c2nonc2N)CC1` the figure was > 15 µM (inactive); with `N#C/C(=C\c1ccc(N2CCOCC2)cc1)c1ccccc1`, > 16 µM (inactive); with `Oc1c(CN2CCN(c3ccccc3)CC2)cc(Br)c2cccnc12`, 2.11 µM.
On to `CCNc1nc(NC(C)C)nc(NC(C)(C)C)n1`, for which the EC50 was > 16 µM (inactive).
Regarding `COc1ccc(-n2cc(-c3ccc(C)cc3)[n+]3c2SCC3)cc1`, the EC50 is > 15 µM (inactive).
Next, `O=C(NCc1ccco1)c1sc(=S)n2c1[nH]c(=O)c1ccccc12`: > 16 µM (inactive).
Next, `CCOc1ccc(/C=C/C2=CC(C)(C)NC(=S)N2)cc1`: > 15 µM (inactive); `CCCC(=O)NC(c1ccco1)c1cc([N+](=O)[O-])c2cccnc2c1O` (configuration not stated): > 15 µM (inactive); `CCc1cc(C(=O)NNC(=S)Nc2cc(C)ccc2C)cs1`: > 15 µM (inactive).
Consider `CS(=O)(=O)NN1C(=O)c2ccccc2NC1c1cccc2cccnc12` (configuration not stated), for which the EC50 is > 16 µM (inactive).
With `Cc1ccc(-n2c(O)c(C=Nc3ccccc3-c3n[nH]c(=S)[nH]c3=O)c3ccccc3c2=O)cc1C` the figure was > 16 µM (inactive); with `Oc1ccc(N=Nc2ccc3c(c2)OCCO3)c2ncccc12`, 3.31 µM.
As for `CC(C)COCc1ccc(O)c2ncccc12`, the EC50 was 16.1 µM.
Regarding `Cc1cccc(/C=C/C(=O)c2cc(Br)ccc(=O)c2O)c1`, the EC50 is 14.5 µM.
As for `COc1ccc(-n2nc(C(=O)NCC(=O)N3CCN(c4ccccc4)CC3)c3ccccc3c2=O)c(OC)c1`, the EC50 was > 16 µM (inactive).
For the compound `CCN(CC)S(=O)(=O)c1cc(OC)ccc1N=Nc1ccc(O)c2ncccc12`, the EC50 was 6.91 µM.
On to `CC(C)C(=O)NC(c1cccs1)c1cc([N+](=O)[O-])c2cccnc2c1O` (configuration not stated), for which the concentration for a half-maximal effect (EC50) was 12.9 µM.
Next, `Cc1ccc(/C=C/C(=O)c2ccccc(=O)c2O)cc1C`: 13 µM; `CC1=C(CC[C@@H](C)CO)OC2CC3C4CCC5CC(O)CCC5(C)C4CC(=O)C3(C)C12` (some centres not stated): > 15 µM (inactive); `Cc1nnc(NC(=O)CSc2ncnc3c2cnn3-c2ccccc2C)s1`: > 15 µM (inactive).
Regarding `C=CCN(CC=C)Cc1c(O)ccc2c(=O)c(-c3ccccc3)coc12`, the EC50 is > 15 µM (inactive).
Regarding `O=C(O)c1ccccc1-c1ccccc1C(=O)Nc1cccc(-c2nc3ccccc3o2)c1`, the EC50 was > 15 µM (inactive).
Next, `CCCCCCc1c(C)nc(-n2[nH]c(C)c(CCO)c2=O)[nH]c1=O`: > 16 µM (inactive); `CCCCCCOC(=O)C[N+](C)(C)CCOC1CC2CCC1(C)C2(C)C` (configuration not stated): > 16 µM (inactive); `COc1ccc(-n2nc(C(=O)NCC(=O)N3CCN(c4ccc(F)cc4)CC3)c3ccccc3c2=O)c(OC)c1`: > 15 µM (inactive).
With `COc1cccc(N=Nc2ccc3cccnc3c2O)c1`, the EC50 was 1.05 µM.
On to `Cc1nn(-c2ccccc2)c(C)c1C(=O)OC/C(O)=C(\C#N)c1nc2ccccc2[nH]1`, for which the EC50 was > 15 µM (inactive).
With `Cc1ccc(Nc2nc(N)c([N+](=O)[O-])c(N3CCC(C)CC3)n2)cc1C`, the EC50 is > 15 µM (inactive).
For `Cc1ccc(-c2nc3c(Cl)cc(Cl)cc3c(=O)n2O)cc1`, the EC50 was 11.5 µM.
With `Cc1oc2ccc(OC(=O)N(C)C)cc2c1C(=O)OC(C)C`, the EC50 is > 16 µM (inactive).
Consider `Oc1ccc2ccccc2c1/C=N/Nc1nnc(-c2ncc[nH]2)c2ccccc12`, for which the EC50 is > 15 µM (inactive).
Turning to `CCc1cc(=S)n2c([nH]c3ccccc32)c1C#N`, the EC50 is > 15 µM (inactive).
On to `O=C(N/N=C/c1cc([N+](=O)[O-])ccc1O)c1ccc(COc2ccc3c(c2)CCC3)o1`, for which the EC50 was 12.3 µM.
Consider `O=C(N/N=C/c1c(O)ccc2ccccc12)c1cccc(C(F)(F)F)c1`, for which the EC50 was 1.42 µM.
Consider `CC(C)(C)c1ccc(Cc2n[nH]c(=S)[nH]c2=O)cc1`, for which the EC50 was > 16 µM (inactive).
For the compound `COc1cccc(COc2cc3ccccc3nc2C)c1`, the EC50 was > 16 µM (inactive).
As for `Cc1ccc2nc(/C(C#N)=C\c3ccc(OC(=O)c4cccs4)cc3)[nH]c2c1`, the EC50 was > 16 µM (inactive).

For the origin of these results see PubChem BioAssay AID2387 (Broad Institute, 2010).
